Data: paper PMC10573892, “β-Lactam TRPM8 Antagonists Derived from Phe-Phenylalaninol Conjugates: Structure–Activity Relationships and Antiallodynic Activity” (International Journal of Molecular Sciences, 2023)

What was measured:
[1] = biological target: T1, rat TRPM8 channel (rTRPM8) (Rattus norvegicus, UniProt Q8R455); test: Ca2+ microfluorimetry, menthol-induced Ca2+ entry in HEK293 cells overexpressing rTRPM8; format: cell-based; conditions: for IC50: rTRPM8, HEK293, activation by 100 µM menthol
T1 construct: expressed in transfected cells
T1 sequence (Q8R455 whole entry): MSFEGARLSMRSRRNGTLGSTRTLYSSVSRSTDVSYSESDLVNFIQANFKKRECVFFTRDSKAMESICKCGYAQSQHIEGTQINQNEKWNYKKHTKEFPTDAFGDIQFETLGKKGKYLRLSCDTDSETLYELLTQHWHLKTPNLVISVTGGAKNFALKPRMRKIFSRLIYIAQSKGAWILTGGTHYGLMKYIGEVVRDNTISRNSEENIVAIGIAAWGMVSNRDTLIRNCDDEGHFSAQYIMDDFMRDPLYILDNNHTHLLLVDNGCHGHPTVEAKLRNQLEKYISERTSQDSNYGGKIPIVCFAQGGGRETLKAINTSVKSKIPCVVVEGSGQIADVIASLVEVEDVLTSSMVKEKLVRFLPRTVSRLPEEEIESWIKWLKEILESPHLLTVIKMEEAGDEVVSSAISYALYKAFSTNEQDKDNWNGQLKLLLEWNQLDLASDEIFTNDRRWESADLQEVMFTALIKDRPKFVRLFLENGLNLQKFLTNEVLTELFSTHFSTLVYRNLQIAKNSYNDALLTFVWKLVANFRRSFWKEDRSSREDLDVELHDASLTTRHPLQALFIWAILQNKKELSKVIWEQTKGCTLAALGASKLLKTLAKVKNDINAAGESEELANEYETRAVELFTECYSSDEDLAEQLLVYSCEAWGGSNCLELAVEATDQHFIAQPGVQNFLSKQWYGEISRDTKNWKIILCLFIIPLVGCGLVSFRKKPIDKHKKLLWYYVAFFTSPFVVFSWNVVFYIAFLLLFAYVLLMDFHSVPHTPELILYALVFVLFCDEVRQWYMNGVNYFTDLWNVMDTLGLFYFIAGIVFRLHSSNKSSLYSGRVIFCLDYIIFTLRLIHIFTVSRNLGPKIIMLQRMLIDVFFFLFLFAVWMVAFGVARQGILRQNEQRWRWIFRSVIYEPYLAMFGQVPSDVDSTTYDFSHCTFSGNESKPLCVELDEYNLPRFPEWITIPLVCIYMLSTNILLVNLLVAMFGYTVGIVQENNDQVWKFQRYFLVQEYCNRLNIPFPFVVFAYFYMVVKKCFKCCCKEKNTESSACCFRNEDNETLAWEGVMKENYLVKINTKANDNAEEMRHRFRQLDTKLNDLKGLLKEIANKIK
Experimental: The diastereomeric 1,4,4-trisubstitutes β-lactams were evaluated as modulators of the TRPM8 channel by calcium microfluorimetry assays. These assays use a Human Embryonic Kidney 293 (HEK293) cell line that stably overexpressed rat TRPM8 channel (rTRPM8). […] Three separated experiments in triplicate were used.
The initial biological evaluation of this series of 1,3,4,4-tetrasubstituted β-lactams was performed by calcium microfluorimetry assays using the indicated HEK293 cell line overexpressing rTRPM8 channels.
(§1) Calcium fluorometry, Patch-Clamp assays and in vivo experiments were performed using the methodology previously described for TRPM8 [35] or TRPM3 [61]. In the Patch -Clamp experiments, the intracellular pipette solution contained (in mM) 140 KCl, 5 EGTA, and 10 mM HEPES, adjusted to pH 7.2 with KOH, and the extracellular solution contained (in mM) 140 NaCl, 2 CaCl2, 1 MgCl2, 10 D-glucose and 10 HEPES, adjusted to pH 7.4 with NaOH. Selectivity against TRPV1, TRPV3, TRPA1 and ASIC3 was subcontracted to Eurofins-CEREP or Eurofins-PANLABS (see ref. [35] for more details).

hTRPM8 = biological target: T2, hTRPM8 (Homo sapiens, UniProt Q7Z2W7); test: Ca2+ microfluorimetry in HEK293 cells expressing human TRPM8; format: cell-based; conditions: activation by 100 µM menthol; read-out: Ca^2+ Microfluorimetry Assays hTRPM8 IC50
T2 construct: expressed in transfected cells; host or cells: HEK293
T2 sequence (Q7Z2W7 whole entry): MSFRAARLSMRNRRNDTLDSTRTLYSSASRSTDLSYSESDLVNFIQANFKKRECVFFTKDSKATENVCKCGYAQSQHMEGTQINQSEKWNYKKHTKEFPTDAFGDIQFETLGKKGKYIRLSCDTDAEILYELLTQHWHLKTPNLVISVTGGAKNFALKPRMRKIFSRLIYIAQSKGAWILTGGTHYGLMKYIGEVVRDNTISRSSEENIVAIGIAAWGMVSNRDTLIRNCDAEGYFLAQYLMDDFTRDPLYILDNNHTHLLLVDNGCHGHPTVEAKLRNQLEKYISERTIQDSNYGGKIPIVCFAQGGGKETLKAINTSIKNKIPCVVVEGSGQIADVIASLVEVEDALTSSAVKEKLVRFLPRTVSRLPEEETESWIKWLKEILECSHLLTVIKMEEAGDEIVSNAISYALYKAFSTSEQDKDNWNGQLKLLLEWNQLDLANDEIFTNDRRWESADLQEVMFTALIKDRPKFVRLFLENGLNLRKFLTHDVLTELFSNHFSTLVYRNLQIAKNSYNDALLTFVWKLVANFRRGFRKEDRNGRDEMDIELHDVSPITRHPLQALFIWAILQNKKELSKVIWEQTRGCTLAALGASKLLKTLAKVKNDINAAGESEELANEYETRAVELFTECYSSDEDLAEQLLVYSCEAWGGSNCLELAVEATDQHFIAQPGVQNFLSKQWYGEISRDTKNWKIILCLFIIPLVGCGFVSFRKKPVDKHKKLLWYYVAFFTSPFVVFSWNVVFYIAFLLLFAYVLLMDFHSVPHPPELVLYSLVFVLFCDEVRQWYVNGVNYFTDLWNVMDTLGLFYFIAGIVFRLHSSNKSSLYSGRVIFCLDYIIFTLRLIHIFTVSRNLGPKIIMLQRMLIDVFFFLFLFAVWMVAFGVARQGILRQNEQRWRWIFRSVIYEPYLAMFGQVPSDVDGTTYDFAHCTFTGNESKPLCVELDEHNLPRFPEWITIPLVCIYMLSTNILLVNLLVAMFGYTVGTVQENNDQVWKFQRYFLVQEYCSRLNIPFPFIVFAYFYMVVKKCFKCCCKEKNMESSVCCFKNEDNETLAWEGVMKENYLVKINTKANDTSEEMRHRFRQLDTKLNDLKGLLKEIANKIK
Experimental: To further characterize this family of compounds, calcium microfluorimetry assays were conducted using the HEK293 cell line, which expresses the human isoform of the TRPM8 channel. Amide derivatives 34 and 35 were selected, and their outcomes were compared with those of the model compound 1 (Table 4). […] This behavior is not particular of these β-lactams, but it is similar to those observed for other TRPM8 antagonists.
as §1

rTRPM8 = biological target: T3, rTRPM8 (Rattus norvegicus, UniProt Q8R455); test: Patch-Clamp electrophysiology on single HEK293 cells expressing rat TRPM8; format: cell-based; conditions: activation by 100 µM menthol; holding voltage −60 mV
T3 construct: expressed in transfected cells
T3 sequence (Q8R455 whole entry): as the sequence (Q8R455 whole entry) above
Description: A recent research study using Patch-Clamp, among other techniques, established that menthol occupies a cavity within the TRPM8 S1–S4 transmembrane helix, with the OH group forming an H-bond with the δ-NH of R842 residue, and Van der Waals interactions among the methyl groups of the ^iPr moiety and residues I846 and L843 [41].
This is evident by a negligible current at negative potentials and a linear intensification of the ohmic current at positive voltages. When applying compound 34 at a concentration of […], a noticeable reduction in menthol-induced activity at depolarizing voltages was observed (indicated by the red line) compared to menthol alone. Dose–response relationships for both tested compounds were established through triplicate experiments at various concentrations, applying a holding voltage of −60 mV (as shown in Figure 2B).
as §1
Figure 2 Compound 34 blocks TRPM8-mediated responses evoked by menthol in rTRPM8-expressing HEK293 cells. (A) IV curves obtained after exposure to vehicle solution (green trace), 100 µM menthol (blue trace) and 100 µM menthol + 10 µM 34 (red trace). Peak current data were expressed as pA/pF (to allow comparison among different size cells). Each point is the mean ± SEM of n = 15. (B) Concentration/response curves for rTRPM8 current blockade by 34 at a holding voltage of −60 mV. […]

[2] = tested on: dorsal root ganglia (DRG) sensory neurons; test: Resting membrane potential of DRG sensory neurons (current clamp Patch-Clamp); format: cell-based; conditions: 10 µM
Experimental: We also investigated the effect of β-lactams derivatives on the resting membrane potential (RMP) of dorsal root ganglia (DRG) sensory neurons.
(A) Representative recordings of resting membrane potential measured under current clamp configuration. The traces show the action potentials (APs) firings from DRG neurons elicited by 100 μM menthol (left trace) or in the presence of vehicle (0.5% DMSO) or the β-lactams derivatives ([…]). (B) Changes in the Vm in the absence and in the presence of 10 μM of the β-lactams derivatives. Data were analyzed by one-way ANOVA followed by Bonferroni post hoc test for multiple comparisons (ns = no significance, **** p < = 0.0001) and given as mean ± SEM; n ≥ 40 cells from 4 cultures.

hTRPM3 = hTRPM3 (Homo sapiens, UniProt Q9HCF6); test: TRPM3 channel Ca2+ microfluorimetry (pregnenolone sulfate 50 µM); format: cell-based; conditions: 10 µM; read-out: degree of inhibition in the Ca^2+ influx induced by pregnenolone sulfate (TRPM3)
Chain of hTRPM3 (Q9HCF6 whole entry): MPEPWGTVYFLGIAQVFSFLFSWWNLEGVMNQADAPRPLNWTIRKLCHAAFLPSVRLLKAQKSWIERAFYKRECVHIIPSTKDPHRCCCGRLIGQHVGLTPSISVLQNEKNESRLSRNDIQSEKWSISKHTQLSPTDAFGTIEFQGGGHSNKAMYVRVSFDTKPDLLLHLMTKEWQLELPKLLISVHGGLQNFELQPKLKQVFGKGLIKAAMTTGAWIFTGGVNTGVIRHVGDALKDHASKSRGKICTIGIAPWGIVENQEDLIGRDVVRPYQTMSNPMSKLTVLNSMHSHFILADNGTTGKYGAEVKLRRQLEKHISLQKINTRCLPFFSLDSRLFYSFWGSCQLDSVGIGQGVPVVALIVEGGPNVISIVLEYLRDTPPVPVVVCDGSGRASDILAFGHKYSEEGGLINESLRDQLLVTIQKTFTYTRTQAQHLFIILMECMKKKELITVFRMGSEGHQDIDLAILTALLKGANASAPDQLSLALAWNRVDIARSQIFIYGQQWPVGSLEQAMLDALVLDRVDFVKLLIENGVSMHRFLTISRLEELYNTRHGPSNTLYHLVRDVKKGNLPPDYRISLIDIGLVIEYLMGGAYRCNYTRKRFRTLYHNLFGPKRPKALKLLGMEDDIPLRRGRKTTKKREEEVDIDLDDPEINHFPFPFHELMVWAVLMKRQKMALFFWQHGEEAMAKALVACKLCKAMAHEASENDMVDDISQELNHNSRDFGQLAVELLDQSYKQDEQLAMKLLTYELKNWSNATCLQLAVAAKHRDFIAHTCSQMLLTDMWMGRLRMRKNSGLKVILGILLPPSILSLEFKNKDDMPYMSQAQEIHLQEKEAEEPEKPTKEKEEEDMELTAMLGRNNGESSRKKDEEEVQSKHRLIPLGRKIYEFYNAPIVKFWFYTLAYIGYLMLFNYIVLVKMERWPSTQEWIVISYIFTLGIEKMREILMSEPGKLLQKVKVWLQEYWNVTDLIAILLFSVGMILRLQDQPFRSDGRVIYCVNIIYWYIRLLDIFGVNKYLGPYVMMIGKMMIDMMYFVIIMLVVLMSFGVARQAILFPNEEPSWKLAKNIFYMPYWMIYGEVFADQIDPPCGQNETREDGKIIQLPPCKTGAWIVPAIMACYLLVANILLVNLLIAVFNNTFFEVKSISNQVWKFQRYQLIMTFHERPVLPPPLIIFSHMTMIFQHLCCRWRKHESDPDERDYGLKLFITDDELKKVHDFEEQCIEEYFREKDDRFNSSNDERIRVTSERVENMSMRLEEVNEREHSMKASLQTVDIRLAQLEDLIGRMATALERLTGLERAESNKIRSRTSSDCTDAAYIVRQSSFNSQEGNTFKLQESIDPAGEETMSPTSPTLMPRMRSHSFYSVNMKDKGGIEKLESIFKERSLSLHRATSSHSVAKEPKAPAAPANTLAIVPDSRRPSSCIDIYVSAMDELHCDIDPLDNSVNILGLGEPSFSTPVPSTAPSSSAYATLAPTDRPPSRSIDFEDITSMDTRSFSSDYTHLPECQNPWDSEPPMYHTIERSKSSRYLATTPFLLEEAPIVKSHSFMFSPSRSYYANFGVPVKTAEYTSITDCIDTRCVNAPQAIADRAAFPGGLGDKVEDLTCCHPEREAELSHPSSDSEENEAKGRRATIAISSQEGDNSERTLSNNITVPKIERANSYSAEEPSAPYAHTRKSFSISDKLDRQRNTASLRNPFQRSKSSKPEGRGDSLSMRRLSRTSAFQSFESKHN
Experimental: First, some TRP channels that play a role in temperature integration and nociception were selected, including hTRPV1, hTRPV3, hTRPA1 and TRPM3. Additionally, the evaluation encompassed the hASIC3 channel with widespread distribution within the peripheral nervous system and contributions to the excitability of primary sensory neurons. In each instance, the compound was subjected to evaluation at a consistent concentration of 10 µM.
as §1

[3] = tested on: oxaliplatin-induced cold hypersensitivity; test: Oxaliplatin-induced cold allodynia in mice (acetone drop test); format: in vivo
Description: It is established that treatments with the chemotherapeutic drug oxaliplatin (OXA) induce painful peripheral neuropathy, known as CIPN, which becomes more pronounced in cold conditions. The TRPM8 channel has been implicated in mouse models of CIPN pain induced by OXA [19, 51]. In fact, the OXA-induced peripheral neuropathy mouse model is being used for the pharmacological characterization of TRPM8 antagonists. For this peripheral neuropathy assay, mice were subcutaneously (s.c.) injected with OXA at a dose of 6 mg/kg dose on days 1, 3 and 5 to male mice to induce increased sensitivity to cold, which can be monitored through the acetone drop test.
Consequently, compounds 34 and 35 have been tested for their ability to alleviate OXA-induced cold hypersensitivity after intraplantar administration (i.pl., 3, 1 and 0.1 μg). […] This effect was observed 15 min post-administration and sustained up to 60 min.
as §1
Figure 4 Effects of compounds 34 (A) and 35 (B) on the oxaliplatin (OXP)-induced cold hypersensitivity (drop acetone test). Peripheral neuropathy was induced in male mice by injecting OXA (6 mg/kg, s.c.) on days 1, 3 and 5. Control animals were treated with vehicle. Compounds 34 (A) and 35 (B) (3 µg/i.pl., 1 µg/i.pl. and 0.1 µg/i.pl.) were administered to the OXP-treated animals, and the time-course of cold hypersensitivity was measured. Data are given ± SEM (n = 5). Statistical analysis, comparing with oxaliplatin-treated mice, was performed by two-way ANOVA followed by post hoc Bonferroni test by multiple comparisons: * […], ** p < 0.01, **** p < 0.0001.

| Structure (SMILES) | IC50 ([1]; Table 3) | IC50 ([1]; Table 1) | also measured |
| --- | --- | --- | --- |
| CC(C)CNC(=O)[C@]1(Cc2ccccc2)[C@H](C)C(=O)N1C[C@H](Cc1ccccc1)NCc1ccc2ccccc2c1 [Compound 45, 4S-Benzyl-4-[N-(iso-butyl)-carbamoyl]-3S-methyl-1-[(2′S-(2′′-naphtylmethyl)amino-3′-phenyl)prop-1′-yl]-2-oxoazetidine] | 3.56 ± 1.4 µM |  |  |
| C[C@@H]1C(=O)N(C[C@H](Cc2ccccc2)NCc2cccc(-c3ccccc3)c2)[C@]1(Cc1ccccc1)C(=O)OC(C)(C)C [Compound 40, 4S-Benzyl-4-(terc-butoxy)carbonyl-3S-methyl-1-[(2’S-N-(3′′-biphenyl)methylamino-3’-phenyl)prop-1′-yl]-2-oxoazetidine] | 6.36 ± 1.41 µM |  |  |
| O=C1CC(Cc2ccccc2)(C(=O)NCc2ccccn2)N1C[C@H](Cc1ccccc1)N(Cc1ccccc1)Cc1ccccc1 (stereo partly shown) [8a,b] |  | 1.99 ± 1.26 µM |  |
| O=C1CC(Cc2ccccc2)(C(=O)Nc2cccnc2)N1C[C@H](Cc1ccccc1)N(Cc1ccccc1)Cc1ccccc1 (stereo partly shown) [7a,b] |  | 11.6 ± 1.3 µM |  |
| C[C@@H]1C(=O)N(C[C@H](Cc2ccccc2)NCc2ccc(-c3ccccc3)cc2)[C@]1(Cc1ccccc1)C(=O)OC(C)(C)C [Compound 41, 4S-Benzyl-4-terc-butoxycarbonyl-3S-methyl-1-[(2’S-N-(4′′-biphenyl)methylamino-3’-phenyl)prop-1′-yl]-2-oxoazetidine] | 9.26 ± 1.41 µM |  |  |
| CC(C)CNC(=O)[C@]1(Cc2ccccc2)[C@H](C)C(=O)N1C[C@H](Cc1ccccc1)NCc1cccc(-c2ccccc2)c1 [Compound 42, 4S-Benzyl-4-[N-(iso-butyl)-carbamoyl]-3S-methyl-1-[(2′S-(3′′-phenylbencil)amino-3′-phenyl)prop-1′-yl]-2-oxoazetidine] | 2.19 ± 1.36 µM |  |  |
| C[C@@H]1C(=O)N(C[C@H](Cc2ccccc2)NCc2ccccc2)[C@]1(Cc1ccccc1)C(=O)OC(C)(C)C [Compound 37, 4S-Benzyl-4-(terc-butoxy)carbonyl-3S-methyl-1-[(2’S-N-benzylamino-3’-phenyl)prop-1′-yl]-2-oxoazetidine] | 3.06 ± 1.25 µM |  |  |
| COC(=O)C1(Cc2ccccc2)CC(=O)N1C[C@H](Cc1ccccc1)N(Cc1ccccc1)Cc1ccccc1 (stereo partly shown) [2a,b] |  | 0.15 µM |  |
| O=C1C[C@@]2(Cc3ccccc3)C(=O)N[C@@H](Cc3ccccc3)CN12 [Compound 11a, (3S,6S)-3,6-dibenzyl-1,4-diazabicyclo[4.2.0]octane-5,8-dione] |  |  | inhibition at 50 µM ([1]; HEK293, at 50 μM): < 50% |
| O=C1CC(Cc2ccccc2)(C(=O)NCc2cccnc2)N1C[C@H](Cc1ccccc1)N(Cc1ccccc1)Cc1ccccc1 (stereo partly shown) [9a,b] |  | 10.7 ± 1.38 µM |  |
| C[C@@H]1C(=O)N(C[C@H](Cc2ccccc2)N(Cc2ccccc2)Cc2ccccc2)[C@]1(Cc1ccccc1)C(=O)NCc1ccccc1 [Compound 35, 4S-Benzyl-4-[N-(benzyl)-carbamoyl]-3S-methyl-1-[(2′S-dibenzylamino-3′-phenyl)prop-1′-yl]-2-oxoazetidine] | 0.49 ± 1.27 µM |  | IC50 (hTRPM8): 3.33 ± 1.28 µM; IC50 (rTRPM8): 0.48 ± 1.33 µM; effect on resting membrane potential (RMP) [2]: did not alter the RMP; inhibition at 10 µM (hTRPM3): 4.1 ± 10.8%; time the antiallodynic effect is sustained ([3]; i.pl., observed from 15 min post-administration): up to 60 min; effect on cold-induced paw licking ([3]; male mice, OXA 6 mg/kg s.c. days 1, 3, 5, i.pl. 3, 1 and 0.1 μg): dose-dependent and significant reduction |
| CC(C)CNC(=O)[C@]1(Cc2ccccc2)[C@H](C)C(=O)N1C[C@H](Cc1ccccc1)NCc1cccc(F)c1 [Compound 43, 4S-Benzyl-4-[N-(iso-butyl)carbamoyl]-3S-methyl-1-[(2′S-(3′′-fluorobenzyl)amino-3′-phenyl)prop-1′-yl]-2-oxoazetidine] | 4.03 ± 1.35 µM |  |  |
| CC(C)CNC(=O)C1(Cc2ccccc2)CC(=O)N1C[C@H](Cc1ccccc1)N(Cc1ccccc1)Cc1ccccc1 (stereo partly shown) [4a,b] |  | 0.71 ± 1.2 µM |  |
| O=C1CC(Cc2ccccc2)(C(=O)NCc2ccc(Cl)c(Cl)c2)N1C[C@H](Cc1ccccc1)N(Cc1ccccc1)Cc1ccccc1 (stereo partly shown) [6a,b] |  |  | antagonist activity ([1]; relative to benzylamide 5a,b): notable reduction in antagonist activity |
| CC(C)CNC(=O)[C@]1(Cc2ccccc2)[C@H](C)C(=O)N1C[C@H](Cc1ccccc1)NCc1cccc(Br)c1 [Compound 44, 4S-Benzyl-4-[N-(iso-butyl)carbamoyl]-3S-methyl-1-[(2′S-(3′′-bromobenzyl)amino-3′-phenyl)prop-1′-yl]-2-oxoazetidine] | 3.27 ± 1.31 µM |  |  |
| O=C1CC(Cc2ccccc2)(C(=O)NCc2ccccc2)N1C[C@H](Cc1ccccc1)N(Cc1ccccc1)Cc1ccccc1 (stereo partly shown) [5a,b] |  | 0.71 ± 1.27 µM |  |
